The assay can be described thus: Sensory analysis (odour / GC-detection threshold and odour character). The following applies: for odour description: result in words. The source says:
Purpose: to Carry Out a Sensory Analysis of (−)-Ambrox and the Compounds (II), (III) and (IV) Formed in the Crude Material and in the Crystallised Material.

With `CC1(C)CCC[C@@]2(C)[C@H]1CC[C@@]1(C)OCC[C@@H]21` [Compound (III), epi-Ambrox], for the setting “compared with (−)-Ambrox”, the “GC-threshold relative to (−)-Ambrox (times higher)” value is “about 10 ×” and the “odor weaker than (−)-Ambrox” value is “about 10 fold”. Moreover, the GC-detection threshold entry (sensory analysis) was “circa 2 ng”. Where the note is “sensory analysis, listed as Compound III”, the odour description entry is reported as “essentially odorless”. The odour description entry (sensory analysis, listed as III) is given as “weaker odour”.
Regarding `CC1(C)CCC[C@@]2(C)[C@H]1CC[C@]1(C)OCC[C@@H]21` [Compound (IV)], where the note is “sensory analysis”, the GC-detection threshold lay in the range of 5 to 10 ng and the odour description entry is listed as “weak, IsoE, woody”. In addition, the odour description result (sensory analysis, listed as IV) is recorded as “weaker odour”.
`C/C1=C/CCO[C@@]2(C)CCCC(C)(C)[C@@H]2CC1` [Compound (II)] showed a detection threshold (as stated in the description) above 500 ng/L. The compound also gave a GC-detection threshold (sensory analysis) above 500 ng. Moreover, the odour description result reads like this: (sensory analysis) ““odorless””; (sensory analysis, listed as II) “weaker odour”; (sensory analysis, listed as compound of formula (II)) “practically odourless”.
`CC1(C)CCC[C@]2(C)[C@H]3CCO[C@]3(C)CC[C@@H]12` [(−)-Ambrox]: where the note is “sensory analysis”, the “Odour Threshold” value amounted to 0.2 ng/L.

(Values after patent US20240401094A1, “SOLID FORM OF (-)-AMBROX FORMED BY A BIOCONVERSION OF HOMOFARNESOL IN THE PRESENCE OF A BIOCATALYST” (Givaudan SA, priority 2016, published 2024).)
